Test results as given in patent US11547102B2, “Method for screening saltiness enhancer using saltiness receptor” (NISSIN FOODS HOLDINGS CO., LTD., priority 2017, dated 2023).

Legend:
human TMC4 (hTMC4) = target: T1, human TMC4 (hTMC4) (Homo sapiens, UniProt Q7Z404); test: whole cell patch clamp assay using HEK293T cells expressing hTMC4; assay type: cell-based; settings: 100 μM added to vehicle solution (134 mM NaCl), same cells compared
T1 construct: host or cells: HEK293T
T1 sequence (Q7Z404 1-706 isoform Q7Z404-1): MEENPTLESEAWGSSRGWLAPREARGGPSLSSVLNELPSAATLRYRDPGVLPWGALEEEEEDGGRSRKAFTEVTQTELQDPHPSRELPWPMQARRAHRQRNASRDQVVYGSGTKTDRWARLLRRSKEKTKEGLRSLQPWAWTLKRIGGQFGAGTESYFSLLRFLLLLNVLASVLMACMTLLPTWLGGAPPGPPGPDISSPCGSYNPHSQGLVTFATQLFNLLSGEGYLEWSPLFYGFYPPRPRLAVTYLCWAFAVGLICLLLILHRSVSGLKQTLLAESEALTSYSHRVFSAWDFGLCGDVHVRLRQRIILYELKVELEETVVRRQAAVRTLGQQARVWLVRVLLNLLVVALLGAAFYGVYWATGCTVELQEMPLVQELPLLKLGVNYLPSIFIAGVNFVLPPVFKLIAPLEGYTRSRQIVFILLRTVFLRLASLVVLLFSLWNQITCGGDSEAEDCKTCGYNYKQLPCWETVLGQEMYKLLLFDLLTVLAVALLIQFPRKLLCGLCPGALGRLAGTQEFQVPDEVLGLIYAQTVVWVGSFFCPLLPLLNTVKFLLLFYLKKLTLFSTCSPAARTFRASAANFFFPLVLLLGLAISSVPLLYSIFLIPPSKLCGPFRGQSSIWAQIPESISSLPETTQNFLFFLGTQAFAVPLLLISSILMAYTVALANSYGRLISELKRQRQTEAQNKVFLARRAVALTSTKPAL
Experimental: In order to observe influence of a known salty taste enhancer on TMC4, the whole cell patch clamp assay (whole cell recording) was performed by using HEK293T cells expressing human TMC4 (hTMC4).
The whole cell patch clamp assay was performed in the same manner as in Example 2 except for the following:
1) HEK293T cells expressing human TMC4 (hTMC4) were used; and
2) a 134 mM NaCl solution was used as a vehicle solution, an extracellular fluid obtained by adding 100 μM arginine hydrochloride (Arg-HCl) as a salty taste enhancer to the vehicle solution, and an extracellular fluid (control not enhancing salty taste) obtained by adding 100 μM sucrose or maltose to the vehicle solution were used. A Cl^− current flowing via TMC4 was compared.
As for the hTMC4, a clone of Accession No. BC025323 was purchased from Dharmacon, and inserted between restriction enzyme EcoR1 site and Not1 site of the plasmid pIRES2-AcGFP1 to create an expression construct in the same manner as that for the mTMC4.

mouse TMC4 (mTMC4) = target: T2, mouse TMC4 (mTMC4) (Mus musculus, UniProt Q7TQ65); test: whole cell patch clamp assay using HEK293T cells expressing mTMC4; assay type: cell-based; settings: 100 μM added to the 134 mM NaCl buffer, 25° C.
T2 construct: expressed in transfected cells; host or cells: HEK293T
T2 sequence (Q7TQ65 1-694): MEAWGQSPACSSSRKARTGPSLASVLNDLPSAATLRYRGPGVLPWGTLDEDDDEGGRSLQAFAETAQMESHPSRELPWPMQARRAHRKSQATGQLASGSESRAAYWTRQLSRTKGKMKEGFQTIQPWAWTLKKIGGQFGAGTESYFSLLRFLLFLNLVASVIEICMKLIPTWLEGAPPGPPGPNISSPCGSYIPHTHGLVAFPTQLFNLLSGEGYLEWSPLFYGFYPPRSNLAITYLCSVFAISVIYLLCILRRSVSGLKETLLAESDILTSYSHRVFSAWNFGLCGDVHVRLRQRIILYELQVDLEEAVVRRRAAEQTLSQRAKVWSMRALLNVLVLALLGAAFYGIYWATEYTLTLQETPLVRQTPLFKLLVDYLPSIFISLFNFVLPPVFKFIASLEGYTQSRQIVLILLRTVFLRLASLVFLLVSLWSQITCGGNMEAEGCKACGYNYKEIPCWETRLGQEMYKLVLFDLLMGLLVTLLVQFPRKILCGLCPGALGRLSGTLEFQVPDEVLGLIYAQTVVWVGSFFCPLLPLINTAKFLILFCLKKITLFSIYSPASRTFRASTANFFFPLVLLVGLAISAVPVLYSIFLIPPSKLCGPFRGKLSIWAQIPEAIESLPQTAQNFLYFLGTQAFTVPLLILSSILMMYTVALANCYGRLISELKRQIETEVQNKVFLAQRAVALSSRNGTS
Experimental: In order to check electrophysiological properties of TMC4, a whole cell patch clamp assay (whole cell recording) was performed using HEK293T cells expressing TMC4.
In order to express mouse TMC4 (mTMC4) in HEK293T cells, a plasmid vector pIRES2-AcGFP1 (Clontech Laboratories, Inc.) having a CMV promoter was used. An expression construct in which mTMC4 (sequence of Accession No. NM_181820.2 cloned from cDNA derived from mouse circumvallate papillae epithelium) was inserted between restriction enzyme EcoR1 site and Not1 site of pIRES2-AcGFP1 was transfected at a ratio of 1 μg/35 mm dish. As a transfection reagent, Lipofectamine™ LTX Reagent with PLUS & Reagent™ (Thermo Fisher Scientific K.K.) was used. […]
In the whole cell patch clamp recording using the HEK293T cells, Axopatch 200B (Molecular Devices, LLC.) was used as an amplifier, and digital data was obtained from Digidata 1550 (Axon Instruments, Union City, Calif., USA). The obtained data was analyzed using software pCLAMP 10.2 (Axon Instruments). […]
The measurement was performed with the membrane potential of mTMC4-expressing cells fixed at −60 mV with extracellular fluids successively perfused. A step pulse (400 ms) from −100 mV to +100 mV at intervals of 10 mV was applied to each extracellular fluid to create an I-V curve, and thus, voltage-current characteristics of mTMC4 obtained with different extracellular fluids were measured. […]

| Cl- current flowing via TMC4 (human TMC4 (hTMC4)) | outward Cl- current (mouse TMC4 (mTMC4)) | Structure (SMILES) |
| --- | --- | --- |
| did not change | – | OC[C@H]1O[C@H](O[C@H]2[C@H](O)[C@@H](O)C(O)O[C@@H]2CO)[C@H](O)[C@@H](O)[C@@H]1O (mixture of isomers) [maltose] |
| – | completely disappeared | O=C(O)c1cc([N+](=O)[O-])ccc1NCCCc1ccccc1 [NPPB, 5-Nitro-2-(3-phenylpropylamino) benzoic acid] |
| did not change | – | OC[C@H]1O[C@@](CO)(O[C@H]2O[C@H](CO)[C@@H](O)[C@H](O)[C@H]2O)[C@@H](O)[C@@H]1O [sucrose] |

| Structure (SMILES) | Cl- current flowing via TMC4 (human TMC4 (hTMC4)) | outward Cl- current (mouse TMC4 (mTMC4)) |
| --- | --- | --- |
| Cl.N=C(N)NCCC[C@H](N)C(=O)O [arginine hydrochloride] | increased | – |
